“Also recorded” adds a separate entry of the source.
How the values were obtained:
Claudin-5 = experiment: Immunofluorescence of Claudin-5 in stroked brain; assay type: in vivo, mouse; details: mean±SD, n=6; Vehicle 19830±5538
Description: (§1) On PSD3, animals were systemically perfused with PBS (Phosphate Buffered Solution, 1×) for 5 minutes. Brains were removed, flash frozen in liquid nitrogen, and stored at −20 C until use. The brains were coronally sectioned by cryostat at 20 μm and mounted (four per slide, 2 mm separating each section) for staining. Negative controls (no primary antibody) were run in tandem with each target to determine thresholding values.
(§2) Sections were fixed in methanol:acetone (1:1), followed by blocking buffer (5% bovine serum albumin (Fisher Scientific) in PBS with 0.1% Triton-X). Sections were incubated in primary antibody overnight at 4 C (anti-rabbit PECAM at 1:100, Fisher Scientific; anti-rat CD49e at 1:250, BD Pharminagen; anti-rat CD45 at 1:200, ThermoFisher Scientific, anti-rabbit Claudin-5 at 1:200, Abcam, anti-rabbit MMP-9 at 1:100, Abcam, and anti-rabbit fibronectin at 1:100, Abcam). Sections were washed and placed in fluorophore-conjugated secondary antibody, followed by NucBlue cell nucleus counterstain (Fisher Scientific) at room temperature (Vector Labs, 1:250), then cover slipped (Vector Labs) and imaged on a Nikon Eclipse Ti and software (Nikon, Melville, N.Y., USA). Image J was used to quantify all Immunofluorescence positive pixels. CD45: One 4× image per all four sections were taken and averaged. […]

MMP-9 [1] = experiment: Immunohistochemical staining of MMP-9 in stroked brain; assay type: in vivo, mouse; details: mean±SD, n=7
Description: as §1, §2

MMP-9 [2] = experiment: qPCR of ipsilateral cortex at PSD3, MMP-9; assay type: in vivo, mouse; details: relative to sham; mean±SD, n=7; Sham 1.018±0.1759, Vehicle 6.761±5.321
Description: (§3) On PSD3, brains were removed and sectioned at 2 mm where the ipsilateral cortical tissue and corresponding contralateral cortical tissue were isolated. All sections per animal were combined and homogenized in Trizol (Life Technologies). RNA extraction was performed according to the RNA extraction kit provided by the manufacturer (Life Technologies). RNA was converted to cDNA using a high capacity cDNA reverse transcriptase kit (Applied Bioscience, Grand Island, N.Y., USA). 18S (control; Mm03928990_g1), collagen IV (Mm00483669_m1), IL-1β (Mm00434228_m1), CXCL12 (Mm00445553_m1), and MMP9 (Mm00442991_m1) Taqman genes were analyzed using Real-time PCR (ViiA7, Life Technologies). Data was analyzed as fold change comparing vehicle and ATN-161 treated mice as a % control (sham).

[3] = tested on: angiogenesis and tumor growth; details: Donate et al.; cited from earlier work
[4] = Physiological measurements (MouseOx) and body weight after reperfusion in stroked mice; assay type: in vivo, mouse
Description: (§4) Mice underwent transient tandem ipsilateral common carotid artery/middle cerebral artery (CCA/MCA) occlusion for 60 minutes as previously published, followed by reperfusion for 1-3 days. Briefly, a small burr hole is created directly over the M2 branch of the MCA, and a 0.0005 inch metal filament is placed under the artery on both sides of the burr hole. The CCA was then isolated and occluded using an aneurysm clip. Blood flow was determined with the Laser Doppler Perfusion Monitor (Perimed, Ardmore, Pa., USA). Animals that received less than 80% occlusion rate from baseline (i.e. pre-occlusion) were excluded from analysis. Sham animals underwent the listed procedure without vascular occlusion. All mice were allowed to recover to post-stroke day (PSD)3, during which daily body weights were measured.
Immediately following reperfusion, heart, rate, pulse distension, and body temperature were recorded using MouseOx (Starr Life Science, Holliston, Mass., USA). After 5 minutes, sterile PBS (Vehicle) or ATN-161 was injected via IP (as described below); mice were continually observed for 15 minutes post reperfusion.

collagen IV = experiment: qPCR of ipsilateral cortex at PSD3, collagen IV; assay type: in vivo, mouse; details: relative to sham; mean±SD, n=8; Sham 1.018±0.1573, Vehicle 0.3543±0.1013
Description: as §3

IL-1β = experiment: qPCR of ipsilateral cortex at PSD3, IL-1β; assay type: in vivo, mouse; details: relative to sham; mean±SD, n=7; Sham 1.023±0.1666, Vehicle 27.04±19.96
Description: as §3

integrin α5β1 [5] = biological target: T1, integrin α5β1 (Mus musculus, UniProt P09055+P11688); experiment: Immunohistochemistry of integrin α5β1 (CD49e) in stroked brain; assay type: in vivo; details: 1 mg/kg IP x3; mean±SD, n=7; Vehicle 308484±53485; p=0.0835
T1 construct: Animals received an IP injection of either Vehicle (sterile PBS) or ATN-161; from tissue; host or cells: living mouse; brain / cerebrovasculature
T1 sequence (P11688 45-898 limits assumed): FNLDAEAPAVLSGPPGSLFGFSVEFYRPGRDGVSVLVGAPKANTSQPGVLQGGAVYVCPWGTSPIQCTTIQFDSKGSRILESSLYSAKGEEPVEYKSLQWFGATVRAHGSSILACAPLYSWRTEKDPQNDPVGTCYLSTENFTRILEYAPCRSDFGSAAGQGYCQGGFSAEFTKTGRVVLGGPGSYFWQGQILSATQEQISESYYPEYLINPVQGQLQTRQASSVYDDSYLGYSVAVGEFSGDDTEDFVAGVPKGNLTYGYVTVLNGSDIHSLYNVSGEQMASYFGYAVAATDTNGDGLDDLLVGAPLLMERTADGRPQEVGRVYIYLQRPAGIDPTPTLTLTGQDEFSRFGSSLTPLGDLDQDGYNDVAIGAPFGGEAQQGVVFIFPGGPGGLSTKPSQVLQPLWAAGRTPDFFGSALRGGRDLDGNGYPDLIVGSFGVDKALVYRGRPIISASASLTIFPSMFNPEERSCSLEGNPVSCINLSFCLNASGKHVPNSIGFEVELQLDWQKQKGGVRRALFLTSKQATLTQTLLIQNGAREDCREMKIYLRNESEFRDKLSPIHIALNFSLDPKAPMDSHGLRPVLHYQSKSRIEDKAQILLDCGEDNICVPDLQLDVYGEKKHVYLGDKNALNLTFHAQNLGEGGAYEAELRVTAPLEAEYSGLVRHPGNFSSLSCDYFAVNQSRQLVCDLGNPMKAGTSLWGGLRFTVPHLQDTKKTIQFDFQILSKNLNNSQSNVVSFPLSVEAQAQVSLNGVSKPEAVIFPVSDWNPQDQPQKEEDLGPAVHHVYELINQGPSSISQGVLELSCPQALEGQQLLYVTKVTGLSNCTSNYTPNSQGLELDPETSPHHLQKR
T1 sequence (P11688 899-1053 limits assumed): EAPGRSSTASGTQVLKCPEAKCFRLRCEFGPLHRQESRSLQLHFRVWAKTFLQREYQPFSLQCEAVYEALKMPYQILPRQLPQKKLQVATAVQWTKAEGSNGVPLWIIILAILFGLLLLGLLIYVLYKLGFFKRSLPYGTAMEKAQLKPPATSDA
T1 sequence (P09055 21-798): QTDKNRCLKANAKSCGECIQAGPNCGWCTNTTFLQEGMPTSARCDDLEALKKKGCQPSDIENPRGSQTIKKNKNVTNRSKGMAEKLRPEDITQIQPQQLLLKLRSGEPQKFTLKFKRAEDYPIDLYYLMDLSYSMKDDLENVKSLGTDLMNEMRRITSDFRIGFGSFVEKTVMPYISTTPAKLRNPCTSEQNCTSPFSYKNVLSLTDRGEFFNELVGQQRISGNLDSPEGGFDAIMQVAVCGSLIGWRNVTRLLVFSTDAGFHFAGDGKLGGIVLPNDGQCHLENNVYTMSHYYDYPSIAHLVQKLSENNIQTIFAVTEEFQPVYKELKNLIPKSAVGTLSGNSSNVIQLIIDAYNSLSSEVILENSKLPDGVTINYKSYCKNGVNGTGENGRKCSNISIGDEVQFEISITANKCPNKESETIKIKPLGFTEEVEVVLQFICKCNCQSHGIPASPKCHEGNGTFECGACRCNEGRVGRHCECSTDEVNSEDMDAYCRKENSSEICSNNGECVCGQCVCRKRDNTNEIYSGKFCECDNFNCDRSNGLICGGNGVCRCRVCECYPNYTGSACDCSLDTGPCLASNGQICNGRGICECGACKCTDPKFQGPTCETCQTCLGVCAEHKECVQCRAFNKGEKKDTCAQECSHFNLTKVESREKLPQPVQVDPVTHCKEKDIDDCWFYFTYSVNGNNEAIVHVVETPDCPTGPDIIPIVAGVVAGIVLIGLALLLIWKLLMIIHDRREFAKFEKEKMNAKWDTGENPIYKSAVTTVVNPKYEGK
Description: as §1, §2

[6] = Phase I and II clinical oncology studies, 1 mg/kg 10-minute infusions: dry mouth, cellulitis, paresthesia in one out of four patients; cited from earlier work
IgG = IgG immunohistochemistry (BBB permeability, IgG extravasation) in stroked brain; assay type: in vivo, mouse; details: PSD3; 1 mg/kg IP x3; mean±SD, n=8; Vehicle 70125±53485
Description: as §1
Sections were fixed in 10% phosphate-buffered formalin. After washing, IgG 568 biotinylated antibody (1:500, Thermo-Fisher Scientific) in 1% bovine serum albumin was applied to the tissue for 2 hours. Slides were then cover slipped (Vector Labs) for imaging on a Nikon Eclipse Ti and software (Nikon, Melville, N.Y., USA). Image J was used to isolate and count IgG positive pixels. Three separate 20× images per core region were taken per section and averaged.

α5β1 integrin [7] = biological target: T2, α5β1 integrin (Mus musculus, UniProt P09055+P11688); experiment: BCAS mouse model, α5 staining in cortex; assay type: in vivo; details: 14 days, 1 mg/kg i.p. after surgery and every other day to day 12, n=4, preliminary data
T2 construct: Mice (WT, α5KO, DB) are subjected to either sham or BCAS (0.18 mm ID coils) surgery; from tissue; host or cells: living mouse; brain (cortex)
T2 sequence (P11688 45-898 limits assumed): as the sequence (P11688 45-898 limits assumed) above
T2 sequence (P11688 899-1053 limits assumed): as the sequence (P11688 899-1053 limits assumed) above
T2 sequence (P09055 21-798): as the sequence (P09055 21-798) above
Description: Representative images within the cortex of α5 staining in BCAS animals treated with ATN-161 (1 mg/kg; i.p.). ATN-161 n=4
Quantification of α5-positive pixel density. ***p≤0.001 compared to sham group.
(§5) Mice (WT, α5KO, DB) are subjected to either sham or BCAS (0.18 mm ID coils) surgery. Euthanasia and brain tissue extraction, and processing for immunohistochemistry or western blot analysis (see below) will occur at early (14 days) or late (30 and 60 days) time points following BCAS. This will allow correlation of α5β1 integrin expression levels with the progression of brain injury over time, whether it could potentially contribute to this pathology early and/or late, and determine whether this is influenced by the diabetic phenotype prior to overt cerebrovascular pathology.

integrin α5β1 [8] = biological target: T1, integrin α5β1; experiment: 11-point behavioral Neuroscore after experimental ischemic stroke; assay type: in vivo; details: vs Vehicle
Description: as §4
Animals received an IP injection of either Vehicle (sterile PBS) or ATN-161 (lmg/kg, Medkoo Biosciences, Morrisville, N.C., USA) immediately after reperfusion, PSD1 and on PSD2. Ischemic stroke was confirmed on 2 mm sections stained with […] (TTC; BD, Sparks, M D, USA) or Magnetic Resonance Imaging on PSD3. Accounting for edema volume, infarct size based on TTC images was analyzed with Image J (NH) software as: […]

GFAP = experiment: BCAS mouse model, GFAP (astrocyte marker) staining in striatum; assay type: in vivo; details: 14 days, striatum/white matter, 1 mg/kg i.p. after surgery and days 2, 4, 6, 8, 10, 12, n=4
Description: Representative images within the striatum of GFAP (astrocyte marker) staining in BCAS animals treated with ATN-161 (1 mg/kg; i.p.); treatment immediately after surgery and on post-stenosis days 2, 4, 6, 8, 10, 12. ATN-161: n=4
Quantification of GFAP-positive pixel density. **p≤0.01 compared to sham group.
as §5

CXCL12 = experiment: qPCR of ipsilateral cortex at PSD3, CXCL12; assay type: in vivo, mouse; details: relative to sham; mean±SD, n=8; Sham 1.015±0.1964, Vehicle 0.5271±0.1779
Description: as §3

α5β1 integrin [9] = biological target: T2, α5β1 integrin; experiment: BCAS mouse model, y-maze % spontaneous alternation; assay type: in vivo; details: post-stenosis day 14, 1 mg/kg i.p. after surgery and days 2, 4, 6, 8, 10, 12, n=4
Description: On post-stenosis day 14, mice underwent y-maze testing and % spontaneous alternation (working memory) was quantified. BCAS animals were treated with vehicle or ATN-161 (1 mg/kg; i.p.) treatment immediately after surgery and on post-stenosis days 2, 4, 6, 8, 10, 12. […] Sham: n=4; BCAS: n=8; ATN-161: n=4
as §5

integrin α5β1 [10] = biological target: T1, integrin α5β1; experiment: MRI (ADC and T2-weighted) infarct and edema volume after experimental ischemic stroke; assay type: in vivo
Description: as §4
Animals received an IP injection of either Vehicle (sterile PBS) or ATN-161 (lmg/kg, Medkoo Biosciences, Morrisville, N.C., USA) immediately after reperfusion, PSD1 and on PSD2. […] Accounting for edema volume, infarct size based on TTC images was analyzed with Image J (NH) software as:
PSD3 animals were anesthetized with isoflurane and placed on a heated bed where body temperature and breathing rate were carefully monitored throughout the scan. […] All images were analyzed with ITK-SNAP (www.itksnap.org) by a blinded, independent neuroradiologist. […]

α5β1 integrin [11] = details: single IP dose 24 hours after MCAO; Wu et al.; cited from earlier work
[12] = IP ATN-161 5 min after reperfusion, vs Vehicle

Substance: Ac-PHSCN-NH2 [ATN-161]
- Claudin-5 positive pixels in the core at PSD3 (Claudin-5): 44220±19878 positive pixels
- MMP-9 positive pixels at PSD3 in the peri-infarct (MMP-9 [1]; Vehicle 189516±170441, p=0.0450): 42227±180171 positive pixels
- MMP-9 positive pixels at PSD3 in the core (MMP-9 [1]; Vehicle 443691±220951, p=0.0734): 232262±68098 positive pixels
- qPCR MMP-9, ipsilateral cortex at PSD3 (MMP-9 [2]): 2.757±2.401 fold change
- doses producing the most significant reduction in activity (angiogenesis and tumor growth) [3]: 1 to 5 mg/kg
- percent change of body temperature following reperfusion [4, 12]: did not show any differences
- percent change of heart rate (bpm) following reperfusion [4, 12]: did not show any differences
- percent change of pulse distension following reperfusion [4, 12]: did not show any differences
- percent change of body weight following ischemic stroke ([4]; IP ATN-161, vs Vehicle): did not show any differences
- qPCR collagen IV, ipsilateral cortex at PSD3 (collagen IV): 0.8563±0.6898 fold change
- qPCR IL-1β, ipsilateral cortex at PSD3 (IL-1β): 11.89±9.235 fold change
- Integrin α5β1 analysis at PSD3 in peri-infarct (integrin α5β1 [5]): 162166±23348 positive pixels
- safety and tolerability in clinical trials [6]: safe and well-tolerated; also recorded: limited side effects
- IgG positive pixel analysis in the core (IgG): 16753±23348 positive pixels
- α5 expression (α5-positive pixel density) in cortex following BCAS (α5β1 integrin [7]): decreases α5β1 integrin expression compared to controls; also recorded: decreases α5 expression compared to controls
- 11-point Neuroscore on PSD1 (integrin α5β1 [8]): no difference
- inflammation (GFAP-positive pixel density, astrocyte activation) following BCAS (GFAP): decreases inflammation compared to controls
- qPCR CXCL12, ipsilateral cortex at PSD3 (CXCL12): 0.8488±0.2846 fold change
- cognitive outcome, y-maze % spontaneous alternation (working memory) (α5β1 integrin [9]): improves cognitive outcome; also recorded: A positive trend is observed
- Infarct volume analysis of T2 weighted MRI scan following MCAo (integrin α5β1 [10]; 1 mg/kg, PSD 3, n=8 vs Vehicle n=7, p≤0.05): reduces infarct volume; also recorded: decreased infarct volumes
- ADC analysis for infarct volume (integrin α5β1 [10]; PSD3, 1 mg/kg IP after reperfusion, PSD1, PSD2, absent edema volume, mean±SD, n=8, Vehicle 17.9±4.677): 12.24±3.758

Substance: PHSRN
- effect after rat transient MCAO (α5β1 integrin [11]): neuroprotective, proangiogenic and increased neurogenesis

Source: patent US20200179479A1, “INHIBITION OF ALPHA5BETA1 INTEGRIN WITH ATN-161 AS A NOVEL THERAPY FOR VASCULAR DEMENTIA” (University of Kentucky Research Foundation, priority 2018, published 2020)
